From US9000186B2, “Ring-fused heterocyclic derivative” (Kyowa Hakko Kirin Co., Ltd., priority 2011, dated 2015) come the findings set out here.

Molecules are shown by their SMILES. pIC50: −log10 of the molar value. Some results are limits rather than exact numbers.

For one assay, the system named is morphine-induced pruritus mice. The experiment in a line: Inhibitory effect for pruritus in morphine-induced pruritus mice. Conditions: oral, dose of 30 mg/kg or less, 30 minutes before intrathecal morphine (1 nmol/5 μL); scratching counted for 30 minutes. The assay is classed as in vivo, male ddY mice. As for the experimental part: Morphine (1 nmol/5 μL, dissolved in physiological saline) or physiological saline was intrathecally administered between the fifth and sixth lumbar vertebrae of male ddY mice using a microsyringe fitted with a 30-gauge injection needle. Mice administered with only morphine were used as a control group, and mice administered with only physiological saline as a physiological saline-administered group.
After the morphine administration, the number of scratching behavior with the hind legs which observed immediately in the mice was measured for 30 minutes. Because mice show a rapid, continuous scratching behavior in each scratching behavior, a series of such behavior was counted as a single scratching behavior.
The test compounds were administered 30 minutes before the morphine administration. Each test compound was suspended in a 0.5% methylcellulose solution, and orally administered in 10 mL/kg volume.
Turning to `CC1(C)CC(NC(=O)c2ccn3c(CC4CCC(F)(F)CC4)c(C(F)(F)F)nc3c2)CCO1` (stereo not drawn) [Compound 54, 3-(4,4-Difluorocyclohexylmethyl)-N-(2,2-dimethyltetrahydro-2H-pyran-4-yl)-2-trifluoromethylimidazo[1,2-a]pyridine-7-carboxamide], the “increase of the scratching behavior observed in the morphine-induced pruritus mice” value is listed as “inhibited”. Same read-out and setting: under `CC(C)(O)CNC(=O)c1cc(Cl)n2c(CC3CCC(F)(F)CC3)c(C(F)(F)F)nc2c1` [Compound 182, 5-Chloro-3-(4,4-difluorocyclohexylmethyl)-N-(2-hydroxy-2-methylpropyl)-2-trifluoromethylimidazo[1,2-a]pyridine-7-carboxamide] stands “inhibited”; under `O=C(Nc1ccncc1)c1ccn2c(CC3CCC(F)(F)CC3)c(C(F)(F)F)nc2c1` [Compound 36, 3-(4,4-Difluorocyclohexylmethyl)-N-(pyridin-4-yl)-2-trifluoromethylimidazo[1,2-a]pyridine-7-carboxamide], “inhibited”; under `CC(C)(C)c1nc2cc(C(=O)NC3CCOCC3)c(Cl)cn2c1CC1CCC(F)(F)CC1` [Compound 113, 2-tert-Butyl-6-chloro-3-(4,4-difluorocyclohexylmethyl)-N-(tetrahydro-2H-pyran-4-yl)imidazo[1,2-a]pyridine-7-carboxamide], “inhibited”. Still for that read-out and setting: to `Cc1cn2c(CC3CCC(F)(F)CC3)c(C(F)(F)F)nc2cc1C(=O)NC1CCOCC1` [Compound 118, 3-(4,4-Difluorocyclohexylmethyl)-6-methyl-N-(tetrahydro-2H-pyran-4-yl)-2-trifluoromethylimidazo[1,2-a]pyridine-7-carboxamide] belongs “inhibited”. Take `Cc1cc(C(=O)NC2CCOCC2)cc2nc(C(F)(F)F)c(CC3CCC(F)(F)CC3)n12` [Compound 44, 3-(4,4-Difluorocyclohexylmethyl)-5-methyl-N-(tetrahydro-2H-pyran-4-yl)-2-trifluoromethylimidazo[1,2-a]pyridine-7-carboxamide]: the “increase of the scratching behavior observed in the morphine-induced pruritus mice” value is recorded as “inhibited”.

Another assay deals with T1, human Cav3.2 T-type Ca2+ channel (Homo sapiens, UniProt O95180).
T1 construct: expressed in transfected cells; host or cells: KJMGER8 cells (Namalwa cell-derived cell line)
T1 sequence (O95180 whole entry): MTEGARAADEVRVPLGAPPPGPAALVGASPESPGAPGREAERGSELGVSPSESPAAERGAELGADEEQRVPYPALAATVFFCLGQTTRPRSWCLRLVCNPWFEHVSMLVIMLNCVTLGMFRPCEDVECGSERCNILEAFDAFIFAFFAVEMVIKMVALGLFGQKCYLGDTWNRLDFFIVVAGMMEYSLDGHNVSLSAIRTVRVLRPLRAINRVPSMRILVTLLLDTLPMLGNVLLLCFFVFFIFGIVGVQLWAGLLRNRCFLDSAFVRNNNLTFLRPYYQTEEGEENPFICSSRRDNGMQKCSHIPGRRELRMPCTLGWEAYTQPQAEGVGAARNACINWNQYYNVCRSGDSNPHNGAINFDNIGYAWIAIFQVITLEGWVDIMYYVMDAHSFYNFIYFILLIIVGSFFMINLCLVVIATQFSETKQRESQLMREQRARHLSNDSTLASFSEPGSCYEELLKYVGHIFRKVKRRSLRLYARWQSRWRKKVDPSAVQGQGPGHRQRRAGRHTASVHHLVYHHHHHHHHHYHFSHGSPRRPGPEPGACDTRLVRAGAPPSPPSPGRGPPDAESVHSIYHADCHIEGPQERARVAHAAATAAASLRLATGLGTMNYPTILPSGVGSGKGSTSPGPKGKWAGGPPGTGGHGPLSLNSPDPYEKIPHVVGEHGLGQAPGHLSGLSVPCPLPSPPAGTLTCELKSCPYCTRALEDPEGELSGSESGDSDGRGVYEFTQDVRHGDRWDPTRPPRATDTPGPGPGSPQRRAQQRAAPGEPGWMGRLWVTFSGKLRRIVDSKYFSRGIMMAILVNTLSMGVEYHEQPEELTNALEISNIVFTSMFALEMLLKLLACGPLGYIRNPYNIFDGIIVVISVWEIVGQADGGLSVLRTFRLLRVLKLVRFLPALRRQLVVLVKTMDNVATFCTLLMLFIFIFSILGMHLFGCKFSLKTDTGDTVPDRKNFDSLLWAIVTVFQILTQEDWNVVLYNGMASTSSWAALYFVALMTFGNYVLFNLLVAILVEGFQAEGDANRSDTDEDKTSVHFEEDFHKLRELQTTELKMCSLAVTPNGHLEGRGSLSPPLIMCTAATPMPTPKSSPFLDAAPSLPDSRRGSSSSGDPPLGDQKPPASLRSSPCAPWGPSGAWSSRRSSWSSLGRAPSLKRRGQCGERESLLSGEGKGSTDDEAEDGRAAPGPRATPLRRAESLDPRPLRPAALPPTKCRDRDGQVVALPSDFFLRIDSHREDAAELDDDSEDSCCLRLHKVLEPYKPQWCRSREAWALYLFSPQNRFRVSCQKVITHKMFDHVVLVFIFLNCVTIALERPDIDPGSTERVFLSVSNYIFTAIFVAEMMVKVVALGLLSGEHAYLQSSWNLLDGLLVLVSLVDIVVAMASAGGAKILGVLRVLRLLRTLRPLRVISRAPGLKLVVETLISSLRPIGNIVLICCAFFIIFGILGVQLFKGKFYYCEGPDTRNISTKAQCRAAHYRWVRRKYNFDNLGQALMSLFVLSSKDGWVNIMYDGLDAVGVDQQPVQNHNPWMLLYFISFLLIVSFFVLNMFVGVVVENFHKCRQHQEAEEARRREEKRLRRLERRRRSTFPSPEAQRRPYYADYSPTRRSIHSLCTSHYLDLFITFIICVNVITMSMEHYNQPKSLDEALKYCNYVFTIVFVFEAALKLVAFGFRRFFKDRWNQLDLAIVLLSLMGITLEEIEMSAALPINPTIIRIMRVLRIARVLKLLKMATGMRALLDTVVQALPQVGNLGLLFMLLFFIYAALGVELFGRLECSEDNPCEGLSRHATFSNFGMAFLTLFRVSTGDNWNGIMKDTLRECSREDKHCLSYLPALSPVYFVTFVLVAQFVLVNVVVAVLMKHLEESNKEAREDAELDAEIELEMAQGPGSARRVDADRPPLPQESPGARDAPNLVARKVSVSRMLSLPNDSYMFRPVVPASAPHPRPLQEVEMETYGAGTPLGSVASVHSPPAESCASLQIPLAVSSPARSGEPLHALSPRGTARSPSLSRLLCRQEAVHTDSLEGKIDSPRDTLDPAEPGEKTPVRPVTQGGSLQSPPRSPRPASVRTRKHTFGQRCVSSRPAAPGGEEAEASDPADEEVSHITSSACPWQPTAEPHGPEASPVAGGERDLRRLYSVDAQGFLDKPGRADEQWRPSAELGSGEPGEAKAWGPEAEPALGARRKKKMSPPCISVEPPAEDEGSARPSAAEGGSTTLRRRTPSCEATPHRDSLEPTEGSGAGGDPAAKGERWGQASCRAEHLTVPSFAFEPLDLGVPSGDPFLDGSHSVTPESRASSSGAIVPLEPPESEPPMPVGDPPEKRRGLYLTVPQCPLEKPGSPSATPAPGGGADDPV
Put plainly: Inhibitory effect for intracellular calcium response via Cav3.2 T-type Ca2+ channels (FLIPR Calcium 3 Assay Kit). The assay is classed as cell-based.
Conditions: not given
For orientation: Calcium flux is commonly read through the fluorescence of an indicator in the cells.
Regarding `CC(C)(O)CNC(=O)c1cc(Cl)n2c(CC3CCC(F)(F)CC3)c(C(F)(F)F)nc2c1` [Compound 182, 5-Chloro-3-(4,4-difluorocyclohexylmethyl)-N-(2-hydroxy-2-methylpropyl)-2-trifluoromethylimidazo[1,2-a]pyridine-7-carboxamide], the pIC50 (as a rule, −log10 of the IC50, conventionally taken in molar units) is over 7.00. Regarding `CC(C)(C)c1nc2cc(C(=O)NC3CCOCC3)c(Cl)cn2c1CC1CCC(F)(F)CC1` [Compound 113, 2-tert-Butyl-6-chloro-3-(4,4-difluorocyclohexylmethyl)-N-(tetrahydro-2H-pyran-4-yl)imidazo[1,2-a]pyridine-7-carboxamide], the pIC50 is over 7.00.

In the case of `Cc1cn2c(S(=O)(=O)NC(C)(C)C)c(C(C)C)nc2cc1C(=O)Nc1ccccc1` [Compound 168, 3-(N-tert-Butylsulfamoyl)-2-isopropyl-6-methyl-N-phenylimidazo[1,2-a]pyridine-7-carboxamide], the pIC50 was over 7.00.

Take `CC(C)(c1nc2cc(C(=O)NC3CCOCC3)c(Cl)cn2c1CC1CCC(F)(F)CC1)C(F)(F)F` [Compound 115, 6-Chloro-3-(4,4-difluorocyclohexylmethyl)-N-(tetrahydro-2H-pyran-4-yl)-2-(1,1,1-trifluoro-2-methylpropan-2-yl)imidazo[1,2-a]pyridine-7-carboxamide]: the pIC50 was over 7.00. Regarding `Cc1cc(C(=O)N(C)C2CCOCC2)cc2nc(C(F)(F)F)c(CC3CCC(F)(F)CC3)n12` [Compound 91, 3-(4,4-Difluorocyclohexylmethyl)-N,5-dimethyl-N-(tetrahydro-2H-pyran-4-yl)-2-trifluoromethylimidazo[1,2-a]pyridine-7-carboxamide], the pIC50 was over 7.00.

As for `O=C(NCC1CCOC1)c1cc(Cl)n2c(CC3CCC(F)(F)CC3)c(C(F)(F)F)nc2c1` (stereo not drawn) [Compound 106, 5-Chloro-3-(4,4-difluorocyclohexylmethyl)-N-{(tetrahydrofuran-3-yl)methyl}-2-trifluoromethylimidazo[1,2-a]pyridine-7-carboxamide], the pIC50 is over 7.00.

For `CC(C)c1nc2cc(C(=O)Nc3ccccc3)ccn2c1SC1CCCCC1` [Compound 40, 3-Cyclohexylthio-2-isopropyl-N-phenylimidazo[1,2-a]pyridine-7-carboxamide], the pIC50 was over 7.00. Still for that read-out and setting: to `CN(C)S(=O)(=O)N(C)c1ccn2c(CC3CCCCC3)c(C(C)(C)C)nc2c1` [Compound 20, N-(2-tert-Butyl-3-cyclohexylmethylimidazo[1,2-a]pyridin-7-yl)-N,N′,N′-trimethylsulfamide] belongs over 7.00; to `CC(C)(C)c1nc2cc(C(=O)NCc3ccccc3)ccn2c1CC1CCCCC1` [Compound 16, N-Benzyl-2-tert-butyl-3-cyclohexylmethylimidazo[1,2-a]pyridine-7-carboxamide], over 7.00. For the compound `CC(C)(C)c1nc2cc(C(=O)NNC(=O)c3ccccc3)ccn2c1CC1CCCCC1` [Compound 17, N′-Benzoyl-2-tert-butyl-3-cyclohexylmethylimidazo[1,2-a]pyridine-7-carbohydrazide], the pIC50 was over 7.00. With `O=C(Nc1ccccc1)c1cc2nc(C(F)(F)F)c(CC3CCC(F)(F)CC3)n2cc1Br` [Compound 117, 6-Bromo-3-(4,4-difluorocyclohexylmethyl)-N-phenyl-2-trifluoromethylimidazo[1,2-a]pyridine-7-carboxamide], the pIC50 is over 7.00.

The same assay, now with this note: human Cav3.2-expressing KJMGER8 cells (Namalwa-derived); calcium response induced by 5 mmol/L CaCl2; normalised to 3 μmol/L mibefradil; read-out: IC50 for the human Cav3.2 T-type Ca2+ current.
On to `O=C(NOC1CCOCC1)c1cc2nc(C(F)(F)F)c(CC3CCC(F)(F)CC3)n2cc1Cl` [Compound 181, 6-Chloro-3-(4,4-difluorocyclohexylmethyl)-N-(tetrahydro-2H-pyran-4-yloxy)-2-trifluoromethylimidazo[1,2-a]pyridine-7-carboxamide], for which the pIC50 is over 7.00. Still for that read-out and setting: under `CC(C)c1nc2cc(C(=O)Nc3ccccc3)c(Cl)cn2c1S(=O)(=O)Nc1ccccc1` [Compound 155, 6-Chloro-2-isopropyl-N-phenyl-3-(N-phenylsulfamoyl)imidazo[1,2-a]pyridine-7-carboxamide] stands over 7.00; under `CC(C)c1nc2cc(C(=O)NOCc3ccccc3)c(Cl)cn2c1S(=O)(=O)NC(C)(C)C` [Compound 159, N-Benzyloxy-3-(N-tert-butylsulfamoyl)-6-chloro-2-isopropylimidazo[1,2-a]pyridine-7-carboxamide], over 7.00; under `CC(C)c1nc2cc(C(=O)Nc3ccccc3)ccn2c1S(=O)(=O)NC(C1CC1)C1CC1` [Compound 129, 3-{N-(Dicyclopropylmethyl)sulfamoyl}-2-isopropyl-N-phenylimidazo[1,2-a]pyridine-7-carboxamide], over 7.00. The same measure, in the same setting: to `Cc1cn2c(S(=O)(=O)N3CCC(F)(F)CC3)c(C(C)C)nc2cc1C(=O)Nc1ccncc1` [Compound 165, 3-(4,4-Difluoropiperidin-1-ylsulfonyl)-2-isopropyl-6-methyl-N-(pyridin-4-yl)imidazo[1,2-a]pyridine-7-carboxamide] belongs over 7.00; to `Cc1cc(NC(=O)c2cc3nc(C(C)C)c(S(=O)(=O)NC(C)(C)C)n3cc2Cl)on1` [Compound 157, 3-(N-tert-Butylsulfamoyl)-6-chloro-2-isopropyl-N-(3-methylisooxazol-5-yl)imidazo[1,2-a]pyridine-7-carboxamide], over 7.00. `CC(C)c1nc2cc(C(=O)Nc3ccccc3)c(Cl)cn2c1S(=O)(=O)NC1CC(F)(F)C1` [Compound 154, 6-Chloro-3-{N-(3,3-difluorocyclobutyl)sulfamoyl}-2-isopropyl-N-phenylimidazo[1,2-a]pyridine-7-carboxamide]: the pIC50 was over 7.00.
